Reference: patent publication US9359418B2, “Inhibitors of the T cell-specific alternative p38 activation pathway and methods of use” (The United States of America, as represented by the …, priority 2012, dated 2016)

Columns and labels:
PANC02 tumors [1] = assay: PANC02 model, tumor vascularization (CD31 staining); assay type: in vivo; details: 80 μg intra-tumor every other day for 2.5 weeks; compared with control treated mice
Procedure: FIG. 11 is a pair of images showing that intra-tumor injection of (11R)-71-85 reduces tumor vascularization. WT C57BL/6 mice were injected with 7.5×10^5 PANC02 cells and 16 days later were injected with 80 μg of either (11R)-71-85 or (11R)-Scrambled. Mice received intra-tumor injections every other day for 2.5 weeks. Twenty-four hours after the last injection, tumors were collected, fixed in formalin, and stained for the endothelial marker CD31, an indicator of tumor vascularization.
Tumor vascularization was also assessed in WT mice treated with (11R)-71-85. WT C57BL/6 mice were injected with 7.5×10^5 PANC02 cells. After 16 days, mice received intra-tumor injections of 80 μg of (11R)-71-85 or (11R)-Scrambled every other day for 2.5 weeks. Twenty-four hours after the last injection, tumors were collected, fixed in formalin, and stained for the endothelial marker CD31, an indicator for tumor vascularization.

KPC mice = assay: KPC mice, PanIN progression and cancer formation after intravenous treatment; assay type: in vivo
Procedure: FIGS. 13A-13D are graphs showing that (11R)-71-85 inhibits PanIN and cancer formation in KPC mice. (FIG. 13A) KPC mice were sub-lethally irradiated at 6 weeks of age and packed with 10×10^6 hematopoietic bone marrow cells and the survival was monitored (n=5 per group; *p<0.05, Log-rank test). (FIG. 13B) Quantification of normal ducts and PanIN of KPC mice treated as in (A) (n=6 per group). (FIG. 13C) CD4^+ T cells infiltrated in the pancreas were analyzed for TNFα and IFNγ expression by flow cytometry after treatment with (11R) 71-85 or (11R) Scr. Bar graphs show the average percentage of indicated cytokine secreting cells. (n=8 per group; *p<0.05, NS=not significant, unpaired two-tailed Student's t-test). (FIG. 13D) KPC mice were treated as in (A) and the expression of different tumor promoting factors was analyzed in isolated pancreatic epithelial cells by quantitative real-time PCR (n=6 per group).
KPC mice provide a genetic model of murine pancreatic tumors that closely mimics the human disease. KPC (KrasG12D/^+; LSLTrp53R172H/^+; Pdx-1-Cre) mice express K-ras in pancreatic epithelium, and when made heterozygous for p53, develop spontaneous tumors starting at approximately 8-10 weeks of age (Hingorani et al., Cancer Cell 7(5):469-483, 2005). This involves the formation of pancreatic intraepithelial neoplasia precursor lesions (PanIN) and progression to fully-developed carcinoma with surrounding stromal and inflammatory reactions (Hingorani et al., Cancer Cell 7(5):469-483, 2005).
Given these findings, further experiments were conducted to determine if inhibition of the alternative pathway in KPC mice would alter disease progression. KPC mice were treated with intravenous (11R)-71-85 or (11R)-Scrambled starting at 9 weeks of age, and the pancreas was histologically evaluated 3.5 weeks later. Thirty-three percent (2 of 6) of mice treated with (11R)-Scrambled developed invasive carcinoma in the pancreas. […] In line with the reduced TNFα secretion, Irf4 mRNA expression was decreased in CD4^+ TILs after (11R)-71-85 treatment. […] The fact that early stage PanIN formation was present, but later pre-invasive stages were reduced, in (11R)-71-85-treated mice supports a role for T cell-derived TNFα in the progression of PanIN towards invasive carcinoma.

Irf4 mRNA = Irf4 mRNA in splenocytes after intraperitoneal injection; assay type: in vivo, mice; details: 40 μg intraperitoneally; splenocytes 4 hours after injection, anti-CD3 plus anti-CD28 24 hours; versus vehicle control
Procedure: FIG. 7 is a graph showing expression of interferon regulatory factor 4 (Irf4) mRNA following in vivo treatment with (11R)-71-85. (11R)-71-85 (40 μg) or vehicle control was injected intraperitoneally into wild type mice. Four hours after injection, splenocytes were collected and stimulated with soluble anti-CD3 plus anti-CD28 for 24 hours. Irf4 mRNA expression was assessed by quantitative real time PCR.
(11R)-71-85 (40 μg) or vehicle control was injected intraperitoneally into wild type mice. Four hours after injection, splenocytes were collected and stimulated with soluble anti-CD3 plus anti-CD28 for 24 hours. Irf4 mRNA expression was assessed by quantitative real time PCR.

PANC02 tumors [2] = assay: PANC02 pancreatic tumor model, tumor growth after intra-tumor injection; assay type: in vivo, mice; details: relative to control animals
Procedure: FIGS. 9A-9C show injection of (11R)-71-85 stops the growth of established PANC02 tumors. WT C57BL/6 mice were injected with 7.5×10^5 PANC02 cells. After 16 days, mice received intra-tumor injections of (11R)-71-85 at the indicated amount or DMSO every other day. (FIG. 9A) Tumor volume from the start of injection (day 16) to day 42 in control mice and mice injected with 40 μg or 80 μg of (11R)-71-85. Sacrifice (sac.) of mice before day 42 is indicated. (FIG. 9B) weight and (FIG. 9C) appearance of the control (left) and treated (right) tumors on day 38.
The p38 MAPK has been implicated in the growth of some tumors that cause local inflammatory responses, such as pancreatic cancer. Therefore, (11R)-71-85 was tested in a pancreatic tumor model. WT C57BL/6 mice were injected with 7.5×10^5 PANC02 cells. After 16 days, mice received intra-tumor injections of 40 μg or 80 μg (11R)-71-85 or DMSO every other day. Tumor volume from the start of injection (day 16) to day 42 in control mice and mice injected with (11R)-71-85 or DMSO was determined (FIG. 9A). Weight (FIG. 9B) and appearance (FIG. 9C) of the control and treated tumors were assessed on day 38.

[3] = intravenous, compared to control

## (11R)-71-85: fusion protein: 11 arginine residues added to the N-terminus of the Gadd45α 71-85 peptide (LQIHFTLIQAFCCEN; N-terminal 11 arginine; UniProt P24522 71-85, looked up, fragment)
PANC02 tumors [1]
  CD31 staining (tumor vascularization): significant reduction
KPC mice; intravenous
  Irf4 mRNA expression in CD4+ TILs: decreased
KPC mice; intravenous from 9 weeks of age, 3.5 weeks
  progression towards high grade PanIN formation (PanIN3, carcinoma in situ): slowed
KPC mice; intravenous from 9 weeks of age, histology 3.5 weeks later
  mice that developed invasive carcinoma in the pancreas: no mice
KPC mice; intravenous, compared to (11R)-Scrambled
  intrapancreatic fibro-inflammatory reaction (H&E): reduced
KPC mice; [3]
  CD4+ tumor infiltrating lymphocytes expressing TNFα: reduced numbers
  expression of IFNγ in CD4+ tumor infiltrating lymphocytes: slightly reduced
KPC mice; quantitative real-time PCR
  expression of Cc12 in pancreatic epithelial cells: reduced
  expression of Cc15 in pancreatic epithelial cells: reduced
  expression of Tgfβ in pancreatic epithelial cells: reduced
  expression of Vegf in pancreatic epithelial cells: reduced
Irf4 mRNA
  Irf4 mRNA expression: significantly inhibited
PANC02 tumors [2]; 40 μg or 80 μg intra-tumor every other day from day 16 to day 42
  tumor volume: significantly decreased
PANC02 tumors [2]; intra-tumor injection every other day, day 38
  tumor weight: significantly decreased
